Publication PMC6753678, “Fueling Open Innovation for Malaria Transmission-Blocking Drugs: Hundreds of Molecules Targeting Early Parasite Mosquito Stages” (Frontiers in Microbiology, 2019)
Where two headings read alike, the source gives them in different places.

Experiments:
[1] = system: P. berghei ookinete development; conditions: for % inhibition, Replicate A / % inhibition, Replicate B: primary screen at 1 μM
HepG2 cells = assay: HepG2 cytotoxicity assay; conditions: for Pb ODA (this manuscript) HepG2 cytoxicity: HepG2 cytotoxicity listed with the Pb ODA data set (this manuscript); for IC50: read-out: HepG2 cytotoxicity assay IC50, dose response confirmation
Method in brief: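 HepG2 cells, 2,500 per well in MEM with 10% FBS and 1% NEAA, exposed to compounds for 48 h at 37°C, 5% CO2. Viability read by fluorescence; percent inhibition relative to 50 μM doxorubicin and DMSO controls.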

[2] = system: 3D7-strain P. falciparum asexual parasites; assay: P. falciparum asexual growth inhibition assay (Pf GIA); assay type: cell-based, Plasmodium falciparum; conditions: dose response confirmation; read-out: Pf asexual growth inhibition assays IC50
Method in brief: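 Read-out was lactate dehydrogenase activity measured by absorbance at 650 nm after freezing and thawing, against 50 μM chloroquine and DMSO controls. Before that, asexual 3D7 cultures (0.25% parasitemia, 2% hematocrit) had 72 h dose-response compound exposure at 37°C in 5% CO2/5% O2/90% N2; three independent replicates averaged.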

[3] = read-out: Pb ODA (this manuscript) IC50, P. berghei ookinete development assay, this manuscript
[4] = read-out: Pb Ookinete development assay IC50, dose response confirmation
[5] = read-out: Pb ODA IC50, this manuscript
[6] = HepG2 values of the three screens unified
[7] = unified HepG2 value across the three screens

Row | Compound | Is compound selective in assay? Pb ODA active? [1] | % inhibition, Replicate A [1] [%] | % inhibition, Replicate B [1] [%] | IC50 [1, 3] [µM] | IC50 [1, 4] [µM] | Pb ODA (this manuscript) HepG2 cytoxicity (HepG2 cells) [µM] | IC50 (HepG2 cells) [µM] | IC50 [2] [µM] | Is compound selective in assay? Pb ODA active? ([1]; 1: YES, 0: NO) | IC50 [1, 5] [µM] | HepG2 cytoxicity (Pb ODA, this manuscript) (HepG2 cells) [µM] | Unified cytotox (HepG2 cells; [6]) [µM] | Unified cytotox (HepG2 cells; [7]) [µM]
1 | COc1cccc(CNCC(C)(C)c2nc(-c3ccc(Cl)c(O)c3)c(-c3ccncc3)[nH]2)c1.Cl [TCMDC-140687] | 0 (key: 1: YES; 0: NO) | 13.26 | 51.15 | 3.74 | 3.74 | 5.01 | 5.01 | 0.759 | – | – | – | – | –
2 | CCC(CC)n1c(COC)cc2c3c(N)nc(N)nc3ccc21 [TCMDC-137313] | – | 74.51 | 66.56 | – | 1.35 | – | 0.0017 | < 0.0002 | 0 (0: NO) | 1.35 | 0.0017 | 0.0017 | –
3 | COc1ccc2ncc(F)c(NC(=O)C3CCC(NCc4cc5cc(F)cc(F)c5[nH]4)CC3)c2n1.Cl (stereo not shown) [TCMDC-136455] | 1 (key: 1: YES; 0: NO) | 109.55 | 94.56 | 1.02 | 1.02 | 15.49 | 15.5 | 2.43 | – | – | – | – | –
4 | CNCCN(C)C(=O)Oc1c(Br)c(C)nc(C)c1-c1ccc(Oc2ccc(OC(F)(F)F)cc2)cc1.Cl [TCMDC-137377] | 0 (key: 1: YES; 0: NO) | 132.58 | 124.21 | 1.48 | 1.48 | 8.32 | 8.32 | 0.071 | – | – | – | – | –
5 | CN(Cc1cccc(F)c1)C1CCN(c2cc(NC(=O)c3ccc(F)cc3)ccn2)CC1.O=C(O)C(F)(F)F [TCMDC-135018] | – | 54.82 | 42.75 | – | 6.06 | – | 0.14 | 0.031 | 0 (0: NO) | 6.06 | – | – | 0.14
6 | COc1ccc2nccc([C@@H](O)CN3CCC(NC(=O)c4cc5ccccc5[nH]4)CC3)c2c1.CS(=O)(=O)O [TCMDC-140780] | – | 48.77 | 68.59 | – | 0.239 | – | 50.7 | 0.94 | 1 (1: YES) | 0.24 | 50.70 | 50.70 | –
7 | Cc1nc(C)c(-c2ccc(Oc3cc(Cl)cc(Cl)c3)cc2)c(O)c1Cl [TCMDC-137391] | 0 (key: 1: YES; 0: NO) | 91.21 | 90.22 | 0.31 | 0.311 | 0.0017 | 0.0017 | 0.0011 | – | – | – | – | –
8 | CCN(CC)CCCNc1nccc(N(C)c2ccc(NC(=O)Nc3cc(C(F)(F)F)ccc3F)cc2)n1.O=C(O)C(F)(F)F [TCMDC-141634] | – | 55.58 | 13.78 | – | 9.02 | – | 2.75 | 0.811 | 0 (0: NO) | 9.02 | – | – | 2.75
9 | CC(C#N)Cc1ccc(-c2cnc(N)c3cc(-c4ccnc(N)n4)ccc23)cc1 (stereo not shown) [TCMDC-134547] | – | 69.67 | 52.16 | – | 0.849 | – | 5.75 | 1.37 | 0 (0: NO) | 0.85 | – | – | 5.75
10 | Cc1noc(C)c1-c1ccc2c(Nc3ccc(Cl)cc3)c(C(N)=O)cnc2c1.Cl [TCMDC-136010] | 0 (key: 1: YES; 0: NO) | 77.30 | 54.77 | 6.66 | 6.66 | 4.84 | 4.84 | 0.053 | – | – | – | – | –
11 | Cc1[nH]c(C)c([N+](=O)[O-])c(=O)c1-c1ccc(Oc2ccc(OC(F)(F)F)cc2)cc1 [TCMDC-135555] | 1 (key: 1: YES; 0: NO) | 67.14 | 51.32 | 2.81 | 2.81 | 100.00 | 100 | 0.177 | – | – | – | – | –
12 | COc1ccc2ncc(F)c(CCN3CCC(NCc4ccc5c(c4)CCO5)CC3)c2n1.Cl [TCMDC-135491] | 0 (key: 1: YES; 0: NO) | 14.40 | 53.74 | 3.39 | 3.39 | 31.62 | 31.6 | 0.879 | – | – | – | – | –
13 | COc1ccc(C=C2SC(=N)N(c3ccccc3OC)C2=O)cc1 [TCMDC-124486] | – | 113.35 | 91.87 | – | 0.682 | – | 24.6 | 0.343 | 1 (1: YES) | 0.68 | – | – | 24.55
14 | Cc1cc(C(=O)OCC(=O)Nc2c(C)n(C)n(-c3ccccc3)c2=O)c(C)n1-c1ccc(F)cc1 [TCMDC-123794] | – | 88.45 | 92.59 | – | 0.21 | – | 19.5 | 0.043 | 1 (1: YES) | – | – | – | 19.50
15 | Cc1ccc2[nH]c(C)c(Br)c(=O)c2c1 [TCMDC-124347] | – | 68.86 | 49.90 | – | 2.45 | – | 100 | 3.82 | 1 (1: YES) | 2.45 | – | – | 100.00
16 | CN(C)S(=O)(=O)n1ncc2c3c(N)nc(N)nc3ccc21.Cl [TCMDC-131933] | 0 (key: 1: YES; 0: NO) | 39.05 | 54.28 | 0.54 | 0.539 | 0.001 | 0.001 | 0.023 | – | – | – | – | –
17 | CCNC(=O)Nc1ccc(-c2cnc(N)c(-c3nc4ccc(OC)cc4[nH]3)c2)cc1 [TCMDC-135321] | – | 44.00 | 70.87 | – | 2.33 | – | 6.68 | 0.364 | 0 (0: NO) | 2.33 | – | – | 6.68
18 | COc1ccc2ncc(F)c(CCN3CC[C@H](NCc4cc(C#N)c5c(c4)OCCO5)[C@H](O)C3)c2c1 [TCMDC-136207] | – | 67.99 | 58.62 | – | 0.747 | – | 38 | 0.795 | 1 (1: YES) | 0.75 | – | – | 38.02
19 | Cc1[nH]c(C)c(-c2ccc(-c3cccc(OC(F)(F)F)c3)nc2)c(=O)c1Cl [TCMDC-136286] | – | 104.87 | 108.75 | – | 0.303 | – | 8.51 | 0.258 | 1 (1: YES) | 0.3 | 8.51 | 8.51 | –
